One data set has as its target T1, rat GLP-1R (Rattus norvegicus, UniProt P32301).
T1 construct: expressed in transfected cells
T1 sequence (P32301 22-463): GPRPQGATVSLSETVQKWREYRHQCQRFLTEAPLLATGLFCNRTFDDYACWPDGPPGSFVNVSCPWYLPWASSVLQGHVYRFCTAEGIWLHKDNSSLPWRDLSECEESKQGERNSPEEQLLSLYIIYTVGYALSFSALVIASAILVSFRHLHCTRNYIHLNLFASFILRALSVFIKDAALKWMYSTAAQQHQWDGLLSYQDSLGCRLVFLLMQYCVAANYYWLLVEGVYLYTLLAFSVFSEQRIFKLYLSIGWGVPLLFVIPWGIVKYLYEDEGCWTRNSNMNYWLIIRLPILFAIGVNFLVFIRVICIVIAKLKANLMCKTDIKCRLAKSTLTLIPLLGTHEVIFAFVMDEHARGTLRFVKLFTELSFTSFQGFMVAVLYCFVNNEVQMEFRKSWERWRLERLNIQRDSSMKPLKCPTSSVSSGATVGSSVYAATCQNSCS
Description: Agonistic activity on GLP-1R of different species (LANCE Ultra cAMP assay): rat. Conditions: ratio of EC50 value of other species to human EC50 value. It counts as cell-based.

A further data set is described as follows: in vivo. On the set-up: species or system cats. To be noted: sc, 0.025 mg/kg. How it is done: After subcutaneous administration to cats, plasma was collected and the drug concentration in plasma was determined to illustrate the in vivo pharmacokinetic properties of the compound according to the present invention. […] The blood samples were stored on wet ice and centrifuged (1500-1600 g, 2-8°C, for 10 minutes) within 0.5 hours to obtain plasma, with at least 100 µL of plasma required for each sample. The plasma was then frozen and stored at -90°C to -60°C for subsequent analysis and detection. 30.0 µL of thawed plasma sample were taken, and 300 µL of acetonitrile solution containing an internal standard was added to precipitate the proteins. The mixture was vortexed for 1 minute and then centrifuged at 13,000 rpm for 5 minutes. 165 µL of the supernatant were transferred to a 96-well plate for LC-MS/MS analysis to determine the drug concentration in the plasma. Based on the drug concentration in plasma of the compound in the cats, the pharmacokinetic parameters were calculated by applying the software Winnolin 8.3 in a non-compartmental model. Table 12 Average pharmacokinetic parameters after single subcutaneous administration in cats

The test system of a further data set is obese cats. In words: Weight loss efficacy in obese cats. Conditions: s.c. QW escalating doses. The class given is in vivo. The procedure:
This study evaluated the weight loss efficacy of the compound of this invention through multiple subcutaneous administrations to obese cats, with changes in cat body weights being monitored. The study involved cats aged 8 months or older with a body condition score (BCS) of ≥6. […] G11 (control group), G12, G13, and […]. . Group G11 served as the vehicle control group. […] The animals' body weights were measured at a fixed time every 7 days after administration, and food intake was measured once per day. Blood tests for routine and biochemical parameters were conducted before grouping and on […]. Body condition score (BCS), feline body mass index (FBMI), and abdominal circumference (AC) were measured once a week. The data were statistically analyzed using ANOVA. If ANOVA yielded statistical significance (p < 0.05) and the variances were homogeneous, Tukey's test was used for intergroup comparisons. If the variances were heterogeneous, Dunnett's T3 test was used. Results are presented as means and standard errors of the mean (Mean ± SEM). The significance level was set at 0.05, and both statistical and biological significance were considered in the analysis.

Structures are written as SMILES.

Take `CC[C@H](C)[C@H](NC(=O)C(C)(C)NC(=O)[C@H](Cc1ccc(O)cc1)NC(=O)[C@H](CC(=O)O)NC(=O)[C@H](CO)NC(=O)[C@@H](NC(=O)C(C)(Cc1ccccc1)NC(=O)[C@@H](NC(=O)CNC(=O)[C@H](CCC(=O)O)NC(=O)C(C)(C)NC(=O)[C@@H](N)Cc1ccc(O)cc1)[C@@H](C)O)[C@@H](C)O)C(=O)NC(C)(C)C(=O)N[C@@H](CC(C)C)C(=O)N[C@@H](CC(=O)O)C(=O)N[C@@H](CCCCN)C(=O)N[C@@H](CCC(N)=O)C(=O)N[C@@H](C)C(=O)N[C@@H](CCC(N)=O)C(=O)N[C@@H](C)C(=O)N[C@@H](CCC(=O)O)C(=O)N[C@@H](Cc1ccccc1)C(=O)N[C@H](C(=O)N[C@@H](CCCCNC(=O)COCCOCCNC(=O)COCCOCCNC(=O)COCCOCCNC(=O)CC[C@H](NC(=O)CCCCCCCCCCCCCCCCCCCCC(=O)O)C(=O)O)C(=O)N[C@@H](Cc1c[nH]c2ccccc12)C(=O)N[C@@H](CC(C)C)C(=O)N[C@@H](CC(C)C)C(=O)N[C@@H](CCCCN)C(=O)NCC(=O)NCC(=O)N1CCC[C@H]1C(=O)N[C@@H](CO)C(=O)N[C@@H](CO)C(=O)NCC(=O)N[C@@H](C)C(=O)N1CCC[C@H]1C(=O)N1CCC[C@H]1C(=O)N1CCC[C@H]1C(=O)N[C@@H](CO)C(=O)N[C@@H](CCCCN)C(N)=O)C(C)C` (stereo partly shown) [Compound P016]: at rat GLP-1R, the “GLP-1R EC50 ratio” value amounted to 1.59. In “in vivo” (both sexes, cat), the AUC(0-inf) worked out at 11200 ng·h/mL, the AUC(0-t) turned out to be 9260 ng·h/mL, the peak level (Cmax) was 123 ng/mL and the Tmax came to 24 h. The half-life in the data set “in vivo” (both sexes, cat) was 37.4 h. In “in vivo” (both sexes, cat, MRT0-t), this compound gave an MRT of 54.4 h. Further, in “in vivo” (both sexes, cat, MRT0-∞), the MRT amounted to 61.6 h. In “in vivo”, this compound gave an AUC(0-t) of 9260 ng·h/mL and a T1/2 of 37.4 h. In addition, in the data set with obese cats, the “effective dose for weight loss” value worked out at 96 nmol/kg. In addition, the “effective dose for weight loss” value with obese cats (equivalent of the nmol/kg dose) came to 0.5 mg/kg. This compound also showed a maximum weight loss in the data set with obese cats (five administrations) of 19.45%.

One may read the AUC(0-inf) as the area under the concentration-time curve extrapolated to infinity. As usually defined, the AUC(0-t) is exposure summed from dosing to a finite time, without extrapolation to infinity. A high value points to high exposure. The Cmax is the highest concentration seen after dosing. For orientation: Tmax means the time at which the peak concentration occurs. A word on the half-life: it is how long it takes for the measured level to halve. Read a high half-life as slow loss. By MRT is commonly meant a mean duration of stay, worked out from the concentration-time curve.

The values are drawn from EP4813403A1, “USE OF GLP-1R/GIPR DOUBLE-TARGET AGONIST IN PREPARING ANIMAL DRUG” (Hangzhou Zhongmeihuadong Pharmaceutical Co., Ltd., priority 2023, dated 2025).
